Measurements: US20260232763A1 (Kadmon Corporation, LLC, priority 2023, published 2026)
Values joined by “and” are separate entries in the source; they are usually repeats but may differ in a detail not shown here. Equal entries are not always repeated. Where two headings read alike, the source gives them in different places.

Key:
[1] = tested on: human peripheral blood lymphocytes (HPBL); conditions: chromosome aberration; cited from earlier work
[2] = dosage range of 200 and 400 mg; cited from earlier work
[3] = Example 3 Part 2 (Regimen B) dabigatran etexilate + belumosudil plasma PK; type: in vivo, human; conditions: for half-life: read-out: T1/2, geometric mean (converted)
Experimental: The ratio was defined as test/reference. In addition, the intraparticipant variability were also presented. […] No formal interim analyses were performed for this study.

[4] = healthy subjects, cited from earlier work
pregnant rats = conditions: cited from earlier work
CYP1A2 = biological target: T1, CYP1A2 (Homo sapiens, UniProt P05177); conditions: in vitro; cited from earlier work
T1 sequence (P05177 1-516): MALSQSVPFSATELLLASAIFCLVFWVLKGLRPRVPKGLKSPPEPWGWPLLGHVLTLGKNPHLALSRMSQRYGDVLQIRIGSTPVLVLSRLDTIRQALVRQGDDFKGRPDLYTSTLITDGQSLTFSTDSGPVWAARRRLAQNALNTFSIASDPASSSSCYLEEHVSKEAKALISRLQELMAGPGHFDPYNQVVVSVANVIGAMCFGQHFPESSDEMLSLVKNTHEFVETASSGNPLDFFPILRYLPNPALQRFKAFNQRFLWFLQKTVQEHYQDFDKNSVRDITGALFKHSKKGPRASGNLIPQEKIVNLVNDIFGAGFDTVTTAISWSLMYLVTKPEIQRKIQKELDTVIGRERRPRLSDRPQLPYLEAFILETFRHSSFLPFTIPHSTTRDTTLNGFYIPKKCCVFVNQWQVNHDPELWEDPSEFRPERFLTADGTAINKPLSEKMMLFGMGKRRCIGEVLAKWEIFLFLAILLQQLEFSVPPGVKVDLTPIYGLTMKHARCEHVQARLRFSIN

UGT1A9 = biological target: T2, UGT1A9 (Homo sapiens, UniProt O60656); conditions: in vitro; cited from earlier work
T2 sequence (O60656 26-530): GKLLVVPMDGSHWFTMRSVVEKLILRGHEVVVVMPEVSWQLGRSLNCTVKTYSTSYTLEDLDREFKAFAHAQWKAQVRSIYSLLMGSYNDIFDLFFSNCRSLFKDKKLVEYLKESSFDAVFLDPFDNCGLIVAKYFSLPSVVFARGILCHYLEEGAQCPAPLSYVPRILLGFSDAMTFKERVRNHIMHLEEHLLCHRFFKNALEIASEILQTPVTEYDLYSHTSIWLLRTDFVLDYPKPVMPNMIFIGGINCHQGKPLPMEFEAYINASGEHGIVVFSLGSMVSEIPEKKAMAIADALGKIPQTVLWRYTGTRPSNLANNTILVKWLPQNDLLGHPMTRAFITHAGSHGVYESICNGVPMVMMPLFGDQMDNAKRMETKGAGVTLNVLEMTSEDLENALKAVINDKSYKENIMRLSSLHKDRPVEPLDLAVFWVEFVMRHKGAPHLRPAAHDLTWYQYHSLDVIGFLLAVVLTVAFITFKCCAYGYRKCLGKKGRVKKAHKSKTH

BCRP = biological target: T3, BCRP (Homo sapiens, UniProt Q9UNQ0); conditions: in vitro, at clinically relevant concentrations; cited from earlier work
T3 sequence (Q9UNQ0 1-655): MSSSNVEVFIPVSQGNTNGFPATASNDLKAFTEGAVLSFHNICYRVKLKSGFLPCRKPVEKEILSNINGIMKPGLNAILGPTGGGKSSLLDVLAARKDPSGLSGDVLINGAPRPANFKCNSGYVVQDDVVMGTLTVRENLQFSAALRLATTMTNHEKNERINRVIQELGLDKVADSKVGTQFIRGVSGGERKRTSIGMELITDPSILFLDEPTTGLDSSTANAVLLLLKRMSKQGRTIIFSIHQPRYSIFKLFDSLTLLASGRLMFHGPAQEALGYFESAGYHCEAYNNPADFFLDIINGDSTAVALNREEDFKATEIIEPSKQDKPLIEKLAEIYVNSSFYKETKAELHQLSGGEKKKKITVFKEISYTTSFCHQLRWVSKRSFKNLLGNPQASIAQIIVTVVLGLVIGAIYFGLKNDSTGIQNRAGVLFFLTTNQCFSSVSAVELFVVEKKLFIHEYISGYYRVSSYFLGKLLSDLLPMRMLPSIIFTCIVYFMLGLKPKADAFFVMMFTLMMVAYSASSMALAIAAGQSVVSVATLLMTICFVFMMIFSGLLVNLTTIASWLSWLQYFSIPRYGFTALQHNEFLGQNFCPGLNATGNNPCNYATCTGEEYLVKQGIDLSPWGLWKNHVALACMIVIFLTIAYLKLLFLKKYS

rat bone marrow = rat bone marrow micronucleus; cited from earlier work
[5] = tested on: bacterial mutagenicity (Ames); conditions: cited from earlier work
rats [6] = conditions: cited from earlier work
rats [7] = conditions: oral; cited from earlier work
[8] = Part 2, Belumosudil alone (Day 5), 200 mg
[9] = Part 2, Dabigatran etexilate + belumosudil (Day 12), 200 mg QD
[10] = coadministration of rabeprazole

CC(C)NC(=O)COc1cccc(-c2nc(Nc3ccc4[nH]ncc4c3)c3ccccc3n2)c1 [belumosudil, 2-{3-[4-(1H-indazol-5-ylamino)-2-quinazolinyl]phenoxy}-N-(propan-2-yl) acetamide]
genotoxicity [1]: not genotoxic
Cmax and AUC increase with dose [2]: approximately proportional
AUC(0-tau), geometric mean [3, 8]: 8490 ng·h/mL
Cmax, geometric mean [3, 8]: 1710 ng/mL
T1/2, geometric mean [3, 8]: 6.199 h
AUC(0-last), geometric mean [3, 9]: 12 000 ng · h/mL
Cmax, geometric mean [3, 9]: 2180 ng/mL
T1/2, geometric mean [3, 9]: 10.371 h
AUC ([3]; male, human, plasma, oral, 200 mg QD, read-out: AUC(0-tau), geometric mean): 11000 ng·h/mL
half-life ([3]; male, human, plasma, oral, 200 mg, Part 2, Belumosudil alone (Day 5), 200 mg): ~6 h
half-life ([3]; male, human, plasma, oral, 200 mg, Part 2, Dabigatran etexilate + belumosudil (Day 12), 200 mg QD): ~10 h
Tmax ([3]; male, human, plasma, oral, 200 mg, read-out: median Tmax): 1.5 to 2 h
effect on belumosudil exposure ([4]; coadministered with itraconazole): no clinically meaningful effect
decrease of AUC ([4]; coadministration of omeprazole): 47%
decrease of Cmax ([4]; coadministration of omeprazole): 68%
decrease of AUC [4, 10]: 80%
decrease of Cmax [4, 10]: 87%
decrease of AUC ([4]; coadministration of rifampin): 72%
decrease of Cmax ([4]; coadministration of rifampin): 59%
maternal exposures (AUC) with adverse developmental outcomes, times the human exposure (AUC) at the recommended dose (pregnant rats; pregnant rats, period of organogenesis): ≥ 3 times
dose with fetal malformations (pregnant rats; rats, oral, pilot study): ≥ 50 mg/kg/day
dose with maternal toxicity (reduced body weight gain) (pregnant rats; rats, oral, pilot study): 150 mg/kg/day and 300 mg/kg/day
CYP1A2 inhibition (CYP1A2): inhibitor
UGT1A9 inhibition (UGT1A9): inhibitor
BCRP inhibition (BCRP): inhibits
genotoxicity (rat bone marrow): not genotoxic
genotoxicity [5]: not genotoxic
dose with decreased follicular development in ovaries (rats [6]): 275 mg/kg/day
dose with abnormal sperm findings and testes/epididymis organ changes in male rats (rats [7]): 275 mg/kg/day
dose with adverse findings in female rats (increased pre- or post-implantation loss, decreased number of viable embryos) (rats [7]): 275 mg/kg/day
dose with reduced fertility in treated males or females (rats [7]): 275 mg/kg/day
